Measurements as given in patent publication US7582611B2, “Motilide compounds” (Pfizer Inc., priority 2005, dated 2009).
≈ marks a conversion by molar mass, not a printed value. Where two headings read alike, the source gives them in different places.

Legend:
[1] = system: Streptococcus pneumoniae ATCC 6301; test: Evaluation of antibacterial activity (MIC, serial dilutions on 96-well microtiter plates); type: cell-based; conditions: ATCC6301, read-out: Antibacterial Activity (MIC, μg/mL)
[2] = target: T1, Motilin Receptor (Oryctolagus cuniculus, UniProt G1T803); test: Tissue based assay for motilin agonist potency (rabbit duodenum contractility); type: cell-based
T1 construct: strips of longitudinal smooth muscle were sliced from the segments; from tissue; host or cells: rabbit duodenum longitudinal smooth muscle strips
How it was run: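 Longitudinal smooth-muscle strips of rabbit duodenum, mucosa removed, in oxygenated Krebs at 37 °C under 1.5 g tension; auxotonic contractions. Cumulative doses at ~2 min intervals, then 1 μM carbachol; responses minus basal tension, normalized to carbachol, fitted to R=(Rmax·C)/(EC50+C) for EC50.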

[3] = rabbit duodenum strips, contraction normalized to 1 μM carbachol, read-out: Motilin Receptor Agonist Activity (EC50)

T1 sequence (G1T803 1-400): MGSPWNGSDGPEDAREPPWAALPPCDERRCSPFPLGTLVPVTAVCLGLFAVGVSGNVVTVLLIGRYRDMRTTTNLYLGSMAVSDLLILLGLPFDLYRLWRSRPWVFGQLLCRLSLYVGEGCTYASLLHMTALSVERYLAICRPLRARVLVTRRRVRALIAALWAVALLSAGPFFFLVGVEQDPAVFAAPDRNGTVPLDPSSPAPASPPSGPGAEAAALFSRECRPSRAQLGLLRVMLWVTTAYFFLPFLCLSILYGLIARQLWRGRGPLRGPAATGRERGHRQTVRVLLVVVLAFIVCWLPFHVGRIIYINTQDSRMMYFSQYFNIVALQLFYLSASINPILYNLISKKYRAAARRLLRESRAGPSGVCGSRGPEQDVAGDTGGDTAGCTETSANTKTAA

| Structure (SMILES) | MIC [1] [µg/mL] | EC50 [2, 3] [nM] | EC50 [2] [nM] |
| --- | --- | --- | --- |
| CC[C@H]1OC(=O)[C@H](C)[C@@H](O[C@H]2C[C@@](C)(OC)[C@@H](O)[C@H](C)O2)[C@H](C)[C@@H](O[C@@H]2O[C@H](C)C[C@H](N(C)C3CCC3)[C@H]2O)[C@](C)(O)C[C@@H](C)[C@H](OCC(=O)NC)[C@H](C)[C@@H](O)[C@]1(C)O [Compound A-51] | > 128 | 510 |  |
| CCCNC(=S)NCCO[C@@H]1[C@H](C)[C@@H](O)[C@](C)(O)[C@@H](CC)OC(=O)[C@H](C)[C@@H](O[C@H]2C[C@@](C)(OC)[C@@H](O)[C@H](C)O2)[C@H](C)[C@@H](O[C@@H]2O[C@H](C)C[C@H](N(C)C(C)C)[C@H]2O)[C@](C)(O)C[C@H]1C [Compound A-57] | 128 (≈ 141 µM) | 210 |  |
| CC[C@H]1OC(=O)[C@H](C)[C@@H](O[C@H]2C[C@@](C)(OC)[C@@H](O)[C@H](C)O2)[C@H](C)[C@@H](O[C@@H]2O[C@H](C)C[C@H](N(C)C(C)C)[C@H]2O)[C@](C)(O)C[C@@H](C)[C@H](OCC(=O)NC(C)C)[C@H](C)[C@@H](O)[C@]1(C)O [Compound A-53] | 128 (≈ 148 µM) | 140 |  |
| CC[C@H]1OC(=O)[C@H](C)[C@@H](O[C@H]2C[C@@](C)(OC)[C@@H](O)[C@H](C)O2)[C@H](C)[C@@H](O[C@@H]2O[C@H](C)C[C@H](N(C)C(C)C)[C@H]2O)[C@](C)(O)C[C@@H](C)[C@H](OCC(=O)NC2CC2)[C@H](C)[C@@H](O)[C@]1(C)O [Compound A-46] | 128 (≈ 149 µM) | 31 |  |
| CC[C@H]1OC(=O)[C@H](C)[C@@H](O[C@H]2C[C@@](C)(OC)[C@@H](O)[C@H](C)O2)[C@H](C)[C@@H](O[C@@H]2O[C@H](C)C[C@H](N(C)C[C@H](C)O)[C@H]2O)[C@](C)(O)C[C@@H](C)[C@H](OCC(N)=O)[C@H](C)[C@@H](O)[C@]1(C)O [Compound A-14] | > 128 | 104 |  |
| CCOC(=O)CO[C@@H]1[C@H](C)[C@@H](O)[C@](C)(O)[C@@H](CC)OC(=O)[C@H](C)[C@@H](O[C@H]2C[C@@](C)(OC)[C@@H](O)[C@H](C)O2)[C@H](C)[C@@H](O[C@@H]2O[C@H](C)C[C@H](N(C)C[C@H](C)O)[C@H]2O)[C@](C)(O)C[C@H]1C [Compound A-9] | > 128 | 430 |  |
| CC[C@H]1OC(=O)[C@H](C)[C@@H](O[C@H]2C[C@@](C)(OC)[C@@H](O)[C@H](C)O2)[C@H](C)[C@@H](O[C@@H]2O[C@H](C)C[C@H](N(C)C(C)C)[C@H]2O)[C@](C)(O)C[C@@H](C)[C@H](OCCF)[C@H](C)[C@@H](O)[C@]1(C)O [Compound A-49] | 128 (≈ 158 µM) |  | 140 |
| CC[C@H]1OC(=O)[C@H](C)[C@@H](O[C@H]2C[C@@](C)(OC)[C@@H](O)[C@H](C)O2)[C@H](C)[C@@H](O[C@@H]2O[C@H](C)C[C@H](N(C)C(C)C)[C@H]2O)[C@](C)(O)C[C@@H](C)[C@H](OCCCCCC(=O)NC)[C@H](C)[C@@H](O)[C@]1(C)O [Compound A-76] | 128 (≈ 144 µM) | 150 |  |
| CC[C@H]1OC(=O)[C@H](C)[C@@H](OC2C[C@@](C)(OC)C[C@H](C)O2)[C@H](C)[C@@H](OC2O[C@H](C)C[C@H](N(C)CC)[C@H]2O)[C@@]2(C)CC(C)=C(O2)[C@H](C)[C@@H](O)[C@H]1C (some centres unmarked) [ABT-229, reference compound] | 64 (≈ 91.7 µM) | 7 |  |
| CC[C@H]1OC(=O)[C@H](C)[C@@H](O[C@H]2C[C@@](C)(OC)[C@@H](O)[C@H](C)O2)[C@H](C)[C@@H](O[C@@H]2O[C@H](C)C[C@H](N(C)C(C)C)[C@H]2O)[C@](C)(O)C[C@@H](C)[C@H](OCC(=O)OC)[C@H](C)[C@@H](O)[C@]1(C)O [Compound A-22] | 128 (≈ 153 µM) | 140 |  |
| CC[C@H]1OC(=O)[C@H](C)[C@@H](O[C@H]2C[C@@](C)(OC)[C@@H](O)[C@H](C)O2)[C@H](C)[C@@H](O[C@@H]2O[C@H](C)C[C@H](N(C)C(C)C)[C@H]2O)[C@](C)(O)C[C@@H](C)[C@H](OCC(=O)NC2CCC2)[C@H](C)[C@@H](O)[C@]1(C)O [Compound A-45] | 128 (≈ 146 µM) | 28 |  |
| CC[C@H]1OC(=O)[C@H](C)[C@@H](O[C@H]2C[C@@](C)(OC)[C@@H](O)[C@H](C)O2)[C@H](C)[C@@H](O[C@@H]2O[C@H](C)C[C@H](N(C)C(C)C)[C@H]2O)[C@](C)(O)C[C@@H](C)[C@H](OCC(=O)NC2CCOCC2)[C@H](C)[C@@H](O)[C@]1(C)O [Compound A-33] | > 128 | 120 |  |
| CC[C@H]1OC(=O)[C@H](C)[C@@H](O[C@H]2C[C@@](C)(OC)[C@@H](O)[C@H](C)O2)[C@H](C)[C@@H](O[C@@H]2O[C@H](C)C[C@H](N(C)C(C)C)[C@H]2O)[C@](C)(O)C[C@@H](C)[C@H](OCc2nc[nH]n2)[C@H](C)[C@@H](O)[C@]1(C)O [Compound A-55] | > 128 | 54 |  |
